These results are taken from US7893068B2, “Physiologically active substances” (Mercian Corporation, priority 2002, dated 2011).

Where two headings read alike, the source gives them in different places.

Data set [1] is described as follows: Stability in an aqueous solution (HPLC residual ratio). As to conditions: for Peak area (mAU × sec) after 24 hours / The residual ratios (%): Britton-Robinson's buffer pH 7, 25° C., 24 hours; for Peak area (mAU × sec) initial: Britton-Robinson's buffer pH 7, before incubation.
Description: The compounds of the formula (I) were dissolved in DMSO in concentrations of 10 to 20 mM, and these were diluted about 500 folds with Britton-Robinson's buffer solution of pH 7. Each of the solutions as sample solutions was incubated at 25° C. for 24 hours.
The sample solutions were analyzed by high performance liquid chromatography before and after incubation, and the residual ratios of the tested substances in the sample solutions after incubation were determined from the peak areas of the obtained chromatograms.
In data set [2] the test system is WiDr human colon cancer cells. The experiment in a line: Solid tumor growth inhibitory activities, WiDr human colon tumor model in nude mice. In kind it is in vivo. As to conditions: Mus musculus, 360 h. The source says: (§1) In order to study solid tumor growth inhibitory activities of the compounds of the formula (I) in vivo, WiDr human colon cancer cells were implanted subcutaneously into the flanks of nude mice. […]. The animals were grouped so that the average of the volumes of the respective groups became uniform, when it reached about 100 mm^3. Control group was made up of 10 mice and 11107D-administering groups were made up of 5 mice. The derivatives were administered for the administering groups for 5 consecutive days by intravenous injection so as to be any of 0.625 mg, 1.25 mg, 2.5 mg, 5 mg and 10 mg/kg/day, and a vehicle was administered to the control group. The tumor volumes on Day 15 were measured, and relative tumor volume ratios (T/C %) were determined setting the tumor volume of the control group as 100%. The body weights on Day 1, Day 5, Day 8, Day 12 and Day 15 (or 16) were measured, and relative body weight variations were determined setting the body weight on Day 1 as 100%. The relative body weight ratios on the day where the body weight reached the minimum were defined as the minimum relative weight ratios and are shown in Table 3.

The nature of data set [3]: Body weight loss (acute toxicity) in the WiDr tumor model. In kind it is in vivo, nude mice. The settings on record: intravenous 5 consecutive days, body weight relative to Day 1.
Text: as §1

Data set [4] deals with WiDr human colon cancer cells. As to the kind of experiment: Growth inhibitory activities on WiDr human colon cancer cells (MTT). Format: cell-based. As to conditions: 72 h, three days incubation. On the procedure:
WiDr human colon cancer cells cultured in DULBECCO-modified eagle medium (DMEM; manufactured by SIGMA Co., Ltd.) containing 10% fetal calf serum, penicillin (100 unit/mL) and streptomycin (100 μg/mL) were dispensed in 96-well plates by 2×10^3 cells/well. After culturing overnight in a CO2 incubator, 20 μL of the above-mentioned incubation solution containing the test compound diluted with 3-fold succession was added, followed by incubation. After three days, 50 μL of 3.3 mg/mL MTT solution was added, followed by culturing for further one hour. Then, formazan formed by the reduction by the action of living cells was extracted with 100 μL of DMSO, the absorbance (A540/A660) was determined and was set as the index of the number of living cells.
The concentrations of the compounds of the formula (I) at which the growth of WiDr human colon cancer cells are inhibited 50% were determined.

The subject of a further data set is VEGF promoter. The experiment in a line: VEGF transcription-suppressing activity (VEGF promoter-PLAP reporter, U251/1-8 cells, hypoxia). Format: cell-based. The settings on record: Homo sapiens, read-out: VEGF transcription-suppressing activities (IC50: nM). An excerpt:
In order to prepare reporter system reflecting transcription from VEGF promoter, VEGF promoter sequence was cloned, and inserted in secretory alkaline phosphatase (PLAP) vector to construct reporter vector.
In order to obtain the promoter region of human VEGF, VEGF genomic DNA was cloned from phage library. PCR primers having the sequences described in Sequence Numbers 1 and 2 were designed based on VEGF cDNA (GenBank accession number: X62568) and a fragment having about 340 bp was obtained by carrying out PCR. Human genomic phage library (Human genomic library, Clontech Co.) was screened using this as a probe to obtain VEGF genomic DNA. The DNA was digested by EcoRI, and the resultant fragments were inserted in the EcoRI site of pUC18. Finally, pUC18-VEGFA containing about 5.4 kb of VEGF 5′ flanking region was obtained. The pUC18-VEGFA was digested by KpnI/NheI, VEGF promoter region of about 2.3 kb obtained was inserted in the multi cloning site KpnI/NheI of secretory alkaline phosphatase (PLAP) vector (Goto et al, Mol. Pharmacol., 49, 860-873, 1996), and thus, VEGF-PLAP vector was constructed.
The above-mentioned VEGF-PLAP vector was transfected in the U251 cell cultured in the DULBECCO-modified eagle medium (DMEM; manufactured by SIGMA Co., Ltd.) containing 10% fetal calf serum, and the cells were cultured in the presence of 1 mg/mL G418 (Merck Co.) to establish G418 resistant stable clone (U251/1-8 cell).
It was confirmed that U251/1-8 cell secreted PLAP under hypoxic condition (2% O2 incubator) in the same manner as in the report (Cell. Mol. Biol. Res. 40, 35-39, 1994) and was a reporter system reflecting the transcription from VEGF promoter. The screening of the compound suppressing VEGF production which was induced by hypoxic stimulation was carried out below using the clone.
In order to remove the influence of alkaline phosphates in serum, U251/1-8 cells were rinsed twice with the adequate amount of PBS (Phosphate buffered saline), diluted in the DMEM medium containing 10% of serum in which alkaline phosphates was inactivated by the treatment of 65° C. for 20 min., and dispensed in 96-well plates by 4×10^4 cells/180 μL.
After culturing at 37° C. overnight in a CO2 incubator (5% CO2), 20 μL of the above-mentioned incubation solution containing the test compound diluted with 3-fold succession was added, and then they were incubated in a hypoxic (2% […]) incubator for 18 hours. With respect to the PLAP activity in the culture supernatants, 10 μL of the supernatants was added to 50 μL of 0.28 M Na2CO3—NaHCO3 buffer solution (pH 10.0, 8.0 mM MgSO4), and finally 50 μL of alkaline phosphatase substrate (LUMISTEIN, Genomescience Co.) was added. After reacting for one hour, the alkaline phosphatase activity of the PLAP was measured by detecting the chemical luminescence by a micro plate reader (Perkin-Elmer Co.). The PLAP activity under normoxia was set as 0%, the PLAP activity of cell which was treated under hypoxia was set as 100%, and the concentration suppressing the PLAP activity by 50% was set as the IC50 value of PLAP. The IC50 values of 11107D derivatives shown in Examples were measured, and the IC50 values of representative 11107D derivatives are shown in Table 1.

Data set [5] is described as follows: Physico-chemical properties: solubility. Format: physicochemical. On the procedure:
The physico-chemical properties of 11107D are shown below. The structure of 11107D was determined as shown below.

In data set [6] the test system is HL-60 human leukemia cell. The settings on record: HL-60, RPM-1640 medium; cited from earlier work.
For data set [7], the system named is P388 mouse leukemia cell. As to conditions: P388, RPM-1640 medium; cited from earlier work.
The subject of data set [8] is P388 mouse leukemia cell. The settings on record: cited from earlier work.
For data set [9], the system named is L-1210 mouse leukemia cell. As to conditions: L-1210, RPM-1640 medium; cited from earlier work.
[10] abbreviates: iv, read-out: Growth inhibitory activities in the WiDr human solid tumor model (T/C %).

In general, IC50 refers to the midpoint of a concentration-inhibition curve. In the case of `CCC(O)C(C)C1OC1CC(C)(O)/C=C/C=C(\C)C1OC(=O)CC(O)CCC(C)(O)C(OC(=O)N2CCN(C3CCCCCC3)CC2)/C=C/C1C` (stereo not drawn) [Compound 45, (8E,12E,14E)-7-((4-Cycloheptylpiperazin-1-yl)carbonyl)oxy-3,6,16,21-tetrahydroxy-6,10,12,16,20-pentamethyl-18,19-epoxytricosa-8,12,14-trien-11-olide], in [1], the “Peak area (mAU × sec) after 24 hours” value is 5024 mAU × sec, the “The residual ratios (%)” value is 95.0% and the “Peak area (mAU × sec) initial” value is listed as 5291 mAU × sec. Moreover, the response vs control in vivo at 5 mg/kg in [2] (Dose 5.0 mg/kg, intravenous injection 5 consecutive days, tumor volume Day 15, read-out: Growth inhibitory activities in the WiDr human solid tumor model (T/C %)) amounted to 20%. Besides, the “the minimum relative weight ratios” value in [3] (Dose 5.0 mg/kg) came to 0.90. The molecule further yielded an IC50 in data set [4] of 0.7 nM. Also, the IC50 in the data set with VEGF promoter (U-251, U251/1-8 cells, hypoxic incubator 18 hours, PLAP activity) stood at 1.9 nM.
Regarding `CCC(O)C(C)C1OC1CC(C)(O)/C=C/C=C(\C)C1OC(=O)CC(O)CCC(C)(O)C(OC(=O)N(C)CCN(CC)CC)/C=C/C1C` (stereo not drawn) [Compound 75, (8E,12E,14E)-7-(N-(2-(N′,N′-Diethylamino)ethyl)-N-methylcarbamoyloxy)-3,6,16,21-tetrahydroxy-6,10,12,16,20-pentamethyl-18,19-epoxytricosa-8,12,14-trien-11-olide], in [1], the “Peak area (mAU × sec) after 24 hours” value came out at 2478 mAU × sec, the “The residual ratios (%)” value was found to be 95.5% and the “Peak area (mAU × sec) initial” value is listed as 2594 mAU × sec. For the same molecule, the response vs control in vivo at 5 mg/kg in [2] (setting [10]) came out at 17%. Further, the “the minimum relative weight ratios” value in [3] (Dose 5.0 mg/kg) is reported as 0.82. Besides, the IC50 in data set [4] was determined as 4.1 nM. Also, the IC50 in the data set with VEGF promoter (U-251, 18 h) worked out at 9.1 nM.
In the case of `CCC(O)C(C)C1OC1CC(C)(O)/C=C/C=C(\C)C1OC(=O)CC(O)CCC(C)(OC)C(OC(=O)N2CCC(N3CCCCC3)CC2)/C=C/C1C` (stereo not drawn) [Compound 109, (8E,12E,14E)-3,16,21-Trihydroxy-6-methoxy-6,10,12,16,20-pentamethyl-7-((4-(piperidin-1-yl)piperidin-1-yl)carbonyl)oxy-18,19-epoxytricosa-8,12,14-trien-11-olide], in [1], the “Peak area (mAU × sec) after 24 hours” value amounted to 2111 mAU × sec, the “The residual ratios (%)” value stood at 94.9% and the “Peak area (mAU × sec) initial” value is recorded as 2224 mAU × sec. Besides, the response vs control in vivo at 0.625 mg/kg in data set [2] (setting [10]) came out at 36%. Besides, the “the minimum relative weight ratios” value in data set [3] (Dose 0.625 mg/kg) amounted to 0.89. Besides, the IC50 in data set [4] stood at 1.5 nM. For the same molecule, the 50% inhibitory concentration (IC50) with VEGF promoter (U-251, 18 h) is 3.3 nM.
On to `CCC(OC)C(C)C1OC1CC(C)(O)/C=C/C=C(\C)C1OC(=O)CC(O)CCC(C)(O)C(OC(=O)N2CCN(C)CC2)/C=C/C1C` (stereo not drawn) [Compound 131, (8E,12E,14E)-3,6,16-Trihydroxy-21-methoxy-6,10,12,16,20-pentamethyl-7-((4-methylpiperazin-1-yl)carbonyl)oxy-18,19-epoxytricosa-8,12,14-trien-11-olide], for which, in data set [1], the “Peak area (mAU × sec) after 24 hours” value amounted to 157 mAU × sec, the “The residual ratios (%)” value was 93.2% and the “Peak area (mAU × sec) initial” value came to 168 mAU × sec. Further, in [2] (setting [10]), the response vs control in vivo at 2.5 mg/kg came to 28%. Besides, the “the minimum relative weight ratios” value in data set [3] (Dose 2.5 mg/kg) came to 0.83. The molecule also registered a 50% inhibitory concentration (IC50) in [4] of 0.7 nM. Further, in the data set on VEGF promoter (U-251, 18 h), the IC50 is 1.7 nM.
On to `CCC(O)C(C)C1OC1CC(C)(O)/C=C/C=C(\C)C1OC(=O)CC(O)CCC(C)(O)C(OC(C)=O)/C=C/C1C` (stereo not drawn) [Compound 11107D, (8E,12E,14E)-7-acetoxy-3,6,16,21-tetrahydroxy-6,10,12,16,20-pentamethyl-18,19-epoxytricosa-8,12,14-trien-11-olide], for which, in data set [1], the “Peak area (mAU × sec) after 24 hours” value turned out to be 3817 mAU × sec, the “The residual ratios (%)” value is 95.6%, the “Peak area (mAU × sec) initial” value is 3994 mAU × sec and the “Stability in an aqueous solution” value was “stable even in an aqueous solution”. Also, the “Solubility in organic solvents” value in [5] (dimethyl sulfoxide, pyridine, methanol and acetone) is “soluble”. The Solubility in water entry in data set [5] (water) is given as “slightly soluble”.
On to `CCC(OC)C(C)C1OC1C(O)C(C)/C=C/C=C(\C)C1OC(=O)CC(O)CCC(C)(O)C(OC(C)=O)/C=C/C1C` (stereo not drawn) [FD895, reference compound], for which, in data set [1], the “Peak area (mAU × sec) after 24 hours” value is 993 mAU × sec, the “The residual ratios (%)” value is on record as 83%, the “Peak area (mAU × sec) initial” value is reported as 1197 mAU × sec and the “Stability in an aqueous solution” value is reported as “unstable in an aqueous solution”. Also, the “in vitro cell growth inhibitory activities” value in [6] is given as “has in vitro cell growth inhibitory activities”. In the data set with P388 mouse leukemia cell [7], the “in vitro cell growth inhibitory activities” value is “has in vitro cell growth inhibitory activities”. The “antitumor activities in an in vivo experiment” value with P388 mouse leukemia cell [8] is “did not show antitumor activities”. For the same molecule, the “in vitro cell growth inhibitory activities” value in data set [9] is “has in vitro cell growth inhibitory activities”.
